The text below walks through data of publication PMC8776730 (Nature Communications, 2022).

Data set [1] can be described thus: Secondary structure proportions from CD spectra. Format: physicochemical. Conditions: calculated by Reed's Reference based on CD spectra; DI water. From the text: To further evaluate the assembled structures, the corresponding circular dichroism (CD), Fourier transform infrared (FTIR) spectroscopy, and wide-angle X-ray scattering (WAXS) spectroscopy were applied. […] The FITR spectra of M1 and M3 in Fig. 3b observed the intermolecular interactions. The peaks at 1629 cm^−1, 1675 cm^−1, and 1698 cm^–1 of M3 indicated anti-parallel β-sheet structure (represent by green arrow heads), peaks at 1648 cm^−1 and 1663 cm^−1 indicated parallel beta sheet structure (represent by blue arrow heads), the existence of 1654 cm^−1 indicate α-Helix structure in M1 which verified the results deduced by CD in Fig. 3a[29],[30]. […] As a homologous sequence with amyloid β-protein (Aβ), the self-assembly motif with peptide sequence of KLVFFGCG had similar aggregation kinetics to (Aβ)42 peptide, which occurred via dynamic growth from oligomers to amyloid fibrils. The aggregation started from the freshly isolated monomers of R-M1, and precipitates were separated in 1 min and 1 h, respectively. […] After analyzed the CD spectra of M1, M3, and R-M1 (Fig. 3e), it can be clearly seen that the main secondary conformation of M1 was Random, the M3 was hybrid of Helix and Beta, and the R-M1 was Beta (Supplementary Table 1). All the results confirmed the conclusion from FTIR spectra. […] The dynamic growth procedure was like the 8-anilino-1-naphthalenesulfonic acid (ANS) stained curve (Supplementary Fig. 12). As known, ANS was sensitive to hydrophobic interaction. When R-M1 were in the initial oligomer, the fluorescence intensity of ANS increased due to the enhanced hydrophobicity. When the molecules were elongated and stacked in higher ordered nanofibrils, the blue shift of ANS in the β-sheet structures reduced the fluorescence. The molecular packing mode of well-ordered fibrils of R-M1 in Fig. 3g observed a weak reflection at 4.9 Å as laminates space and a strong broad reflection at 10.3 Å as sheet space, which was illustrated in the inserted figure. The fibril morphology was characterized by transmission electron microscopy (TEM) imaging (Fig. 3f). The statistical calculation of the fiber diameter in TEM images was 5.0 ± 0.4 nm (Supplementary Fig. 13), which was corresponded to the theoretical calculated two molecules length of R-M1. We assumed that the nanofibers were assembled by twisted R-M1 molecules centered on self-assembly motif.
The secondary structures of M1, M3 and R-M1 were verified by CD spectroscopy (JASCO Corporation, JC-1500) at room temperature with a cell path length of 1 cm. M1, […] and R-M1 were diluted to 100 μM with deionized water at 25 °C and allowed to stand for 12 h for complete assembly. Detail parameter setting were CD scale:200 mdeg/1.0Dod, measure range: 260~190 nm, scanning speed: 500 nm/min, bandwidth: 1.00 nm, and data pitch: 0.5 nm. All spectra were the average of three measurements.
Supplementary Table 1∣ Secondary structure proportions ofM1, M3 and R-M1 calculated by Reed’s Reference based on […]

Data set [2] deals with MIA PaCa-2 cells. Put plainly: Transwell migration assay. In kind it is cell-based. Conditions: for migrated cells (Fig S20): MIA PaCa-2 cells. The procedure:
Fig. 5 The BIVA effect with enhanced targeting to pancreatic tumor cell for boundaries imaging. a Illustration of BIVA effect: active targeting and assembly/aggregate induced retention (AIR) effect. b Chemical structure of FITC labeling. c 2D and 3D confocal images of M2 with active targeting property and M1 with BIVA effect on MIA PaCa-2 cells after incubation for 1 h. d The distribution of M1 on MIA PaCa-2 cell. e ThT staining of the lysed cell membrane of MIA PaCa-2. f, Illustration of migration inhibition after treated by BIVA probe. g The image of the migrated cells after treatment of PBS (blank), M2, M4, and M1. Scale bar: 100 μm. h The pie diagram of quantitative statistical calculation of the migrated cells (blue) in different groups. The blank control was set as 100% migrated cells.
In order to further understand the contribution of the active targeting and AIR effect during locating of the cells, the cell transwell experiment was used to quantitively evaluate interference of the cell migration based on M1, M2, and M4 (Fig. 5f). As expected, untreated cells were easy to migrate to the lower chamber, while the cells treated with active targeting molecule M2 and assembled molecule M4, the migration of cell were reduced. Under the same molar concentration, the M1 treatment group had the most inference on cell migration (Fig. 5g). […] Based on those results, we speculate M1 can be more enriched in the tumor site and form fibers through assembly to inhibit tumor cell migration compared to M2 and M4 which have no ability to target and adhere on the cell membrane.
Transwell migration assay occurred in chemotaxis chambers containing 24 wells. […] Bottom chambers contained DMEM medium containing 10% FBS. After 24 h of treatment with M1, M2, and M4 (150 μM), we fixed cells using 4% paraformaldehyde and stained with 0.25% crystal violet solution. The stained cells were counted using a microscope.
Supplementary Fig. 20∣ The quantitative results of the migrated cells after treatment of PBS (blank), M2, […] and
M1 (Fig 5g). The mean of results of fiveparallel experiments is shown and data were expressed as mean ± SD (n=5).
pM1 = 5.85E-06, pM2 = 5.94E-05, pM4 = 3.16 E-04, Statisticalanalysis: one-way ANOVA followed by post hoc Tukey’s
(1 picture or pasted object on this page, not shown here)

As for “mPEG-GPAKLVFFGCGRGD [M3, the non-labeling molecule of M1 (no IR783)]”, in data set [1], the Secondary structure proportion: Beta is 38.7%, the Secondary structure proportion: Helix was 45%, the Secondary structure proportion: Random was 16.3% and the Secondary structure proportion: Turn is 0%. Further, in data set [2] (averge of groups 1-3), the “migrated cells (Fig S20)” value is recorded as 484.667. The “migrated cells (Fig S20)” value in data set [2] (group 1) came out at 483. The “migrated cells (Fig S20)” value in data set [2] (group 2) is given as 456. In addition, the “migrated cells (Fig S20)” value in data set [2] (group 3) is listed as 515.
Consider mPEG-GPAKLVFFGC(IR783)GRGD [M1], for which, in data set [1], the Secondary structure proportion: Beta is 32.2%, the Secondary structure proportion: Helix was 0%, the Secondary structure proportion: Random was 66.1% and the Secondary structure proportion: Turn is 1.7%. In addition, the “emigrate (migrated cells relative to blank)” value in data set [2] (MIA PaCa-2, 150 μM, 24 h, blank control = 1) is 0.3109. In addition, in data set [2] (averge of groups 1-3), the “migrated cells (Fig S20)” value was 285.333. Further, in data set [2] (group 1), the “migrated cells (Fig S20)” value is on record as 285. The “migrated cells (Fig S20)” value in data set [2] (group 2) is given as 302. In addition, the “migrated cells (Fig S20)” value in data set [2] (group 3) was determined as 269.
